Assay results published in patent US20260091026A1, “METHODS OF TREATING INFLAMMATORY DISEASES” (INTERLINE THERAPEUTICS, INC., priority 2023, published 2026).

What was measured:
[1] = test system: THP1-Dual cells, NF-κB pathway (SEAP); assay: THP-1 Dual cell SEAP assay (L18-MDP stimulated); assay type: cell-based; conditions: Homo sapiens, 10 ng/mL L18-MDP, 20-24 h, SEAP readout, read-out: IFNγ THP1 IC50
Experimental: THP1-Dual™ cells (InvivoGen Cat #thpd-nfis) allow simultaneous assessment of the NF-κB pathway, by monitoring the activity of secreted embryonic alkaline phosphatase (SEAP) as well as the IRF pathway, by assessing the activity of a secreted luciferase (Lucia). Cells were cultured according to manufacturers' recommendations. For the assay, cell concentration was adjusted to 7.14×10^5 cells/mL in assay media (RPMI 1640, 2 mM L-Glutamine, 25 mM HEPES, 10% fetal bovine serum (heat-inactivated for 30 min at 56° C.), Pen-Strep (100 U/mL)) and 35 μL of cell suspension (˜25,000 cells) per well were added to a flat bottom 384-well plate (white opaque). Plate was centrifuged at 300 g for 2 min, compounds were added in serial dilution series according to the plate layout (volumes ˜500 nL-0.0152 nL) and plate was incubated at 37° C. in 5% CO2 for 30 min. Using assay media, a L18-MDP stock solution, that results in a final concentration of 10 ng/mL L18-MDP in each well when adding 15 μL to each well, was prepared. 15 μL of L18-MDP stock solution was added to each well, while 15 μL of assay media was added to the negative control wells. Plates were subsequently incubated at 37° C. in 5% CO2 overnight (20-24 h).
For the SEAP assay: without disturbing the cells at the bottom of the well, 15 μL supernatant was transferred to a clear 384-well flat bottom plate and 35 μL QUANTI-Blue Solution per well was added. Following a 2 h incubation at 37° C., the optical density (OD) was measured at 620-655 nm using a microplate reader (PheraStar FS microplate reader with protocol for OD 620-655 nm).
Values of media-only wells were subtracted and % inhibition for each compound concentration relative to the DMSO/L18-MDP-treated controls was calculated. Inhibition values+/−SD were fitted by non-linear regression using Prism software (GraphPad PRISM Software) to calculate IC50 values.

RIPK2 (KD)/XIAP (BIR2) = molecular target: T1, RIPK2 (KD)/XIAP (BIR2) (Homo sapiens, UniProt O43353); assay: RIPK2-XIAP binding competition PPI assay (TR-FRET); conditions: for Emax: 50 nM of GSK583 = -100% activity, read-out: PPI Amax; for IC50: GST-RIPK2 / His-XIAP (BIR2)-avi, 120 min at 23° C.
T1 construct: made in house; host or cells: baculovirus-infected Sf9 cells
Text: The ability of selected compounds of Formula (I) to inhibit the binding of an His-XIAP (BIR2)-avi fusion protein to a GST-RIPK2 fusion protein was quantified employing the TR-FRET-based competition assay as described in the following paragraphs.
Recombinant fusion protein of N-terminal Glutathione-S-Transferase (GST) and a fragment of human RIPK2 (amino acids 1-310 of accession number 043353), expressed in baculovirus infected Sf9 cells, purified via glutathione affinity chromatography, was used as GST-RIPK2 fusion protein. Recombinant fusion protein of N-terminal 6xHistidine (His), a fragment of human XIAP (amino acids 152-231 of accession number P98170), and C-terminal avi tag, expressed in baculovirus infected Sf9 cells, purified via Nickel NTA affinity chromatography, was used as the His-XIAP (BIR2)-avi fusion protein.
For the assay, a working solution of 1 nM GST-RIPK2, 25 nM His-XIAP (BIR2)-avi, 6 nM Anti-His-XL665 […] (Revvity Catalogue No. 61HISXLB), and 0.5 nM Anti-GST-Tb(Revvity Catalogue No. 61GSTTLB) in 25 mM Tris-HCl 7.5, 0.5 mM ethylene glycol-bis(2-aminoethylether)-N,N,N′,N′-tetraacetic acid (EGTA), 10 mM magnesium chloride (MgCl2), 2.5 mM dithiothreitol (DTT), 0.01% (w/v) bovine serum albumin (BSA), 0.005% (w/v) Pluronic F-127 (Sigma), 0.5 mM sodium ortho-vanadate, 5 mM-Glycerophosphate disodium salt hydrate (BGP) was prepared. 50 nL of a 100-fold concentrated solution of each test compound in DMSO was dispensed via acoustic dispensing into a white low volume 384-well microtiter plate (Perkin Elmer Catalogue No. 6008280). Subsequently, 5 μL of the assay working solution were added.
The resulting mixture was incubated 120 min at 23° C. Subsequently, the amount of complex formed by the GST-RIPK2, XIAP (BIR2)-avi, Anti-His-XL665, and Anti-GST-Tb was evaluated by measurement of the resonance energy transfer from the Tb-cryptate to the XL665. Therefore, the fluorescence emissions at 520 nm and 665 nm after excitation at 337 nm were measured in a TR-FRET reader, e.g. a Pherastar FS(BMG Labtechnologies, Offenburg, Germany) or an Envision (PerkinElmer). The ratio of the emissions at 665 nm and at 520 nm was taken as the measure of the amount of the complex. The data were normalized (assay reaction without inhibitor=0% activity, 50 nM of GSK583=−100% activity).

T1 sequence (O43353 1-310): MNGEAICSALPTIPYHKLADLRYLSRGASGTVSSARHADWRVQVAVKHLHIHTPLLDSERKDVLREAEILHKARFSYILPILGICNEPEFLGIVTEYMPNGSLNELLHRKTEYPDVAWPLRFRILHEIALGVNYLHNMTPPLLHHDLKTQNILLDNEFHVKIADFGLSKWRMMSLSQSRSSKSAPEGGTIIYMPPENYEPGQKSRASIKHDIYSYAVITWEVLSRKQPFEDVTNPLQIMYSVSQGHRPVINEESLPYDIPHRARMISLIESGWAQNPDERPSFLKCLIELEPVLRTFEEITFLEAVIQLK

Structure (SMILES) | IC50 [1] [nM] | Emax (RIPK2 (KD)/XIAP (BIR2)) [%] | IC50 (RIPK2 (KD)/XIAP (BIR2)) [nM]
COc1cc2ncc(-c3cc(C(=O)NCc4n[nH]c5cccc(F)c45)n(C)n3)n2cc1S(=O)(=O)C(C)(C)C [Example 19, 3-(6-(tert-butylsulfonyl)-7-methoxyimidazo[1,2-a]pyridin-3-yl)-N-((4-fluoro-1H-indazol-3-yl)methyl)-1-methyl-1H-pyrazole-5-carboxamide] | 100 to 500 | ≥ 80 | < 10
COc1cc2ncc(-c3cc(C(=O)NCc4cccc5ccnn45)n(C)n3)n2cc1S(=O)(=O)C(C)(C)C [Example 20, 3-(6-(tert-butylsulfonyl)-7-methoxyimidazo[1,2-a]pyridin-3-yl)-1-methyl-N-(pyrazolo[1,5-a]pyridin-7-ylmethyl)-1H-pyrazole-5-carboxamide] | > 2500 | ≥ 80 | 100 to 1000
COc1cc2ncc(-c3cc(C(=O)NCc4cccn5ccnc45)n(C)n3)n2cc1S(=O)(=O)C(C)(C)C [Example 21, 3-(6-(tert-butylsulfonyl)-7-methoxyimidazo[1,2-a]pyridin-3-yl)-N-(imidazo[1,2-a]pyridin-8-ylmethyl)-1-methyl-1H-pyrazole-5-carboxamide] | > 2500 | ≥ 80 | 100 to 1000
COc1cc2ncc(-c3cc(C(=O)NCc4cn5ccccc5n4)n(C)n3)n2cc1S(=O)(=O)C(C)(C)C [Example 22, 3-(6-(tert-butylsulfonyl)-7-methoxyimidazo[1,2-a]pyridin-3-yl)-N-(imidazo[1,2-a]pyridin-2-ylmethyl)-1-methyl-1H-pyrazole-5-carboxamide] | > 2500 | ≤ 30 | > 1000
COc1cc2ncc(-c3cc(C(=O)NCc4cc5ccccn5n4)n(C)n3)n2cc1S(=O)(=O)C(C)(C)C [Example 23, 3-(6-(tert-butylsulfonyl)-7-methoxyimidazo[1,2-a]pyridin-3-yl)-1-methyl-N-(pyrazolo[1,5-a]pyridin-2-ylmethyl)-1H-pyrazole-5-carboxamide] | 500 to 2500 | ≤ 30 | > 1000
COc1cc2ncc(-c3cc(C(=O)NCc4ccn(C)n4)n(C)n3)n2cc1S(=O)(=O)C(C)(C)C [Example 24, 3-(6-(tert-butylsulfonyl)-7-methoxyimidazo[1,2-a]pyridin-3-yl)-1-methyl-N-((1-methyl-1H-pyrazol-3-yl)methyl)-1H-pyrazole-5-carboxamide] | 500 to 2500 | ≥ 80 | 100 to 1000
COc1cc2ncc(-c3cc(C(=O)NCc4cnn(C)c4)n(C)n3)n2cc1S(=O)(=O)C(C)(C)C [Example 25, 3-(6-(tert-butylsulfonyl)-7-methoxyimidazo[1,2-a]pyridin-3-yl)-1-methyl-N-((1-methyl-1H-pyrazol-4-yl)methyl)-1H-pyrazole-5-carboxamide] | > 2500 | ≤ 30 | > 1000
COc1cc2ncc(-c3cc(C(=O)NCc4ccccn4)n(C)n3)n2cc1S(=O)(=O)C(C)(C)C [Example 26, 3-(6-(tert-butylsulfonyl)-7-methoxyimidazo[1,2-a]pyridin-3-yl)-1-methyl-N-(pyridin-2-ylmethyl)-1H-pyrazole-5-carboxamide] | 500 to 2500 | ≥ 80 | 100 to 1000
COc1cc2ncc(-c3cc(C(=O)NCc4cccnc4)n(C)n3)n2cc1S(=O)(=O)C(C)(C)C [Example 27, 3-(6-(tert-butylsulfonyl)-7-methoxyimidazo[1,2-a]pyridin-3-yl)-1-methyl-N-(pyridin-3-ylmethyl)-1H-pyrazole-5-carboxamide] | > 2500 | 55 to 80 | > 1000
COc1cc2ncc(-c3cc(C(=O)NCc4ccccc4)n(C)n3)n2cc1S(=O)(=O)C(C)(C)C [Example 28, N-benzyl-3-(6-(tert-butylsulfonyl)-7-methoxyimidazo[1,2-a]pyridin-3-yl)-1-methyl-1H-pyrazole-5-carboxamide] | 500 to 2500 | ≥ 80 | 100 to 1000
COc1cc2ncc(-c3cc(C(=O)NCc4ccncc4)n(C)n3)n2cc1S(=O)(=O)C(C)(C)C [Example 29, 3-(6-(tert-butylsulfonyl)-7-methoxyimidazo[1,2-a]pyridin-3-yl)-1-methyl-N-(pyridin-4-ylmethyl)-1H-pyrazole-5-carboxamide] | > 2500 | ≤ 30 | > 1000
C[C@@H](NC(=O)c1cc(-c2cnc3cc(OCCO)c(S(=O)(=O)C(C)(C)C)cn23)nn1C)c1ccccc1 [Example 32, (R)-3-(6-(tert-butylsulfonyl)-7-(2-hydroxyethoxy)imidazo[1,2-a]pyridin-3-yl)-1-methyl-N-(1-phenylethyl)-1H-pyrazole-5-carboxamide] | < 100 | ≥ 80 | < 10
COc1cc2ncc(-c3cc(C(=O)N[C@H](C)C4CC4)n(C)n3)n2cc1S(=O)(=O)C(C)(C)C [Example 35, (R)-3-(6-(tert-butylsulfonyl)-7-methoxyimidazo[1,2-a]pyridin-3-yl)-N-(1-cyclopropylethyl)-1-methyl-1H-pyrazole-5-carboxamide] | > 2500 | 30 to 55 | > 1000
COc1cc2ncc(-c3cc(C(=O)N[C@@H](C)C4CC4)n(C)n3)n2cc1S(=O)(=O)C(C)(C)C [Example 36, (S)-3-(6-(tert-butylsulfonyl)-7-methoxyimidazo[1,2-a]pyridin-3-yl)-N-(1-cyclopropylethyl)-1-methyl-1H-pyrazole-5-carboxamide] | > 2500 | 30 to 55 | > 1000
COc1cc2ncc(-c3cc(C(=O)NC(C)C)n(C)n3)n2cc1S(=O)(=O)C(C)(C)C [Example 37, 3-(6-(tert-butylsulfonyl)-7-methoxyimidazo[1,2-a]pyridin-3-yl)-N-isopropyl-1-methyl-1H-pyrazole-5-carboxamide] | > 2500 | 30 to 55 | > 1000
COc1cc2ncc(-c3cc(C(=O)NCC4CC4)n(C)n3)n2cc1S(=O)(=O)C(C)(C)C [Example 38, 3-(6-(tert-butylsulfonyl)-7-methoxyimidazo[1,2-a]pyridin-3-yl)-N-(cyclopropylmethyl)-1-methyl-1H-pyrazole-5-carboxamide] | > 2500 | 30 to 55 | > 1000
COc1cc2ncc(-c3cc(C(=O)NCC4CCC4)n(C)n3)n2cc1S(=O)(=O)C(C)(C)C [Example 39, 3-(6-(tert-butylsulfonyl)-7-methoxyimidazo[1,2-a]pyridin-3-yl)-N-(cyclobutylmethyl)-1-methyl-1H-pyrazole-5-carboxamide] | > 2500 | ≥ 80 | 100 to 1000
COc1cc2ncc(-c3cc(C(=O)NCC4CCCC4)n(C)n3)n2cc1S(=O)(=O)C(C)(C)C [Example 40, 3-(6-(tert-butylsulfonyl)-7-methoxyimidazo[1,2-a]pyridin-3-yl)-N-(cyclopentylmethyl)-1-methyl-1H-pyrazole-5-carboxamide] | > 2500 | ≥ 80 | 100 to 1000
